Laboratory results: patent US20020103228A1, “Composition and method for use of pyridinium derivatives in cosmetic and therapeutic applications” (TORRENT PHARMACEUTICALS LTD., priority 1999, published 2002)

Legend:
AGE-BSA = molecular target: T1, AGE-BSA (Bos taurus, UniProt P02769); assay: In-vitro AGE breaking activity by ELISA; assay type: biochemical, Bovine; conditions: 37° C., 24 hours
T1 construct: Bovine serum albumin (fraction V) (BSA); from tissue; host or cells: bovine serum (fraction V); glycated in house with 1.6 M glucose at 37 °C for 16 weeks
Description: AGE breaking activity has been confirmed by the screening procedure as mentioned below:
Methods of experiment: Elisa (Enzyme Linked Immunosorbent Assay)
160 mg/ml of protein, bovine serum albumin, BSA and 1.6M glucose sugar were dissolved in phosphate buffered saline, PBS. Sodium azide was added at 0.02% concentration as a preservative. The solution was filtered asceptically through a […] filter and kept for aging at 37° C. for 16 weeks. After 16 weeks the solution was dialyzed against PBS, aliquoted and stored at −20° C.
To determine the AGE breaking activity, 10 μg/ml of the 16 weeks AGE-BSA was incubated with different concentrations of the test compounds at 37° C. for 24 hours and AGE breaking activity of the test compounds by ELISA was determined.
ELISA was performed as follows
1. Different concentrations of 16 weeks AGE-BSA were coated on a microtiter plate as standard. Each concentration is coated in triplicates.
2. The test samples were coated on microtiter plate at a concentration of 5 ng to 20 ng per well in triplicates
3. The plate was incubated at 37° C. for one hour.
4. After incubation the plate was washed with PBST (PBS with 0.05% Tween 20).
5. Blocking with 5% skimmed milk in PBS at 37° C. for one hour was done.
6. The plate was washed with PBST.
7. Primary antibody against AGE-BSA was added and the plate is incubated at 37° C. for one hour.
8. The plate was washed with PBST
9. Secondary antibody anti rabbit HRPO (Horse-Radish Per Oxidase) conjugate was added and the plate is incubated at 37° C. for one hour.
10. The plate was washed with PBST.
11. Colour development with OPD (orthophenylenediamine dihydrochloride) and hydrogen peroxide was done.
12. OD (optical density) at (450 nm reading-620 nm reading) was measured after incubation at 37° C. for 15 minutes with Microplate ELISA Reader
The breaker activity of the compounds were determined by the following formula: [formula]
OD450-620Control=Absorbance of 20 ng AGE-BSA after incubation at 37° C. for 24 hours without test compound
OD450-620Test=Absorbance of 20 ng AGE-BSA after incubation at 37° C. for 24 hours with required concentration of test compound
Using specific examples, the % AGE breaking activity was calculated and recorded in Table 2.

[1] = Free radical scavenging activity on ABTS radical cation; assay type: biochemical
Description: This method measures the relative ability of free radical scavenging substances to scavenge the ABTS^.+ i.e. 2,2-Azino-bis-(3-ethyl benzo thiazoline-6-sulfonate) radical cation as compared to a standard amount of standard or free radical scavengers antioxidants. Incubation of ABTS with Peroxidase (metmyoglobin) and hydrogen peroxide results in the production of radical cation ABTS^.+. This species is blue-green in colour and can be detected at 730 nm. Antioxidants or free radical scavengers in the added sample that causes suppression of the color to a degree that is proportional to their concentration.
Preparation of Buffer Solutions
A. Phosphate Citrate Buffer (pH 5.0). 48.5 ml of 0.1M citric acid with sufficient 0.2M disodium hydrogen phosphate to produce 100 ml.
B. Phosphate Buffer Saline (PBS): Dissolve 40.0 g of NaCl, 1.0 g of KCl, 1.0 g of KH2PO4 and 3.05 g of Na2HPO4 in 1 liter milli-Q water. Dilute 200 ml of above solution to 1 liter with milli-Q water (pH 7.4-7.6).
C. 3 μM stock solution of Peroxidase was prepared in phosphate buffer saline pH 7.4(PBS).
D. 1.08 mM stock solution of Hydrogen peroxide was prepared in phosphate buffer saline pH 7.4 (PBS).
Preparation of ABTS Stock Solution
1 tablet (10 mg) was dissolved in phosphate citrate buffer (pH 5.0).
Preparation of ABTS Working Solution
5.0 ml of ABTS stock solution was diluted with PBS to 20 ml.
Preparation of Horse Radish Peroxidase Stock Solution
320 μg of the enzyme was dissolved in 2.5 ml of PBS.
Preparation of Hydrogen Peroxide (1.08 mM) Solution
12 μl of Hydrogen Peroxide (30% w/v) was diluted to 100 ml with PBS. […]
Preparation of ABTS Radical Stock Solution
To 18 ml of ABTS stock solution, 100 μl of Horseradish Peroxidase stock solution was added.
As soon as 1.5 ml of hydrogen peroxide solution was added to the above solution, blue-green colour of the ABTS radicals appeared. This solution was incubated at 30° C. for 30 min.
Preparation of Control Solution
980 μl of ABTS radical stock solution was added to an eppendorf tube. To it was added 100 μl of various PBS solution.
Preparation of test Solution
980 μl of ABTS radical stock solutions were added to different eppendorf tubes. To it were added 100 μl of various concentrations of drug solution.
Measurement of Absorbance (O.D)
The absorbance of control and test samples was recorded immediately at 730 nm taking PBS as blank.
Calculation: The percent antioxidant activity was calculated according to the formula. % Antioxidant activity=[O.D of test sample/O.D of control*100]−100.

T1 sequence (P02769 25-607): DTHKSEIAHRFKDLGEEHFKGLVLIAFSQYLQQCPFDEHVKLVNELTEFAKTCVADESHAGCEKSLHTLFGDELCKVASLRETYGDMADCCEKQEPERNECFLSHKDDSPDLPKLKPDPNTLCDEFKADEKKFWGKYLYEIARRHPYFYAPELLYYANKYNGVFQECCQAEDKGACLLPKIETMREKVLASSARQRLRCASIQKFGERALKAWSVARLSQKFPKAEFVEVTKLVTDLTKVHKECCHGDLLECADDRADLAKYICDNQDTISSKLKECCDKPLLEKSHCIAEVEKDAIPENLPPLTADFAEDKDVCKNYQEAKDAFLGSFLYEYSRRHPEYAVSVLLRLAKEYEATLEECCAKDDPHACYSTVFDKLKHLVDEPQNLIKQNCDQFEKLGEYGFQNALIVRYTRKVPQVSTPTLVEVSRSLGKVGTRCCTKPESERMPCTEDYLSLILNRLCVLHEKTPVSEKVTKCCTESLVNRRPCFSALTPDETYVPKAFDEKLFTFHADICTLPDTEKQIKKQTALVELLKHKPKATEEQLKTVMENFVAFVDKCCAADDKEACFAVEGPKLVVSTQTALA

SMILES: CC(C)NC(=O)C[n+]1cccc(C(=O)NNS(C)(=O)=O)c1.[Cl-] [Compound 43, 1-(2-isopropylamino-2-oxoethyl)-3-(2-methylsulfonylhydrazinocarbonyl)-pyridinium chloride]
- % Breakage (AGE-BSA; 10 mM test compound): 10.85%

SMILES: O=C(C[n+]1cccc(C(=O)NNc2ccccc2)c1)Nc1ccccc1.[Cl-] [Compound 65, 1-(2-phenylamino-2-oxoethyl)-3-(phenyl hydrazinocarbonyl)pyridinium chloride]
- % Breakage (AGE-BSA; 2.5 mM test compound): 68.35%
- Relative Free Radical Scavenging Activity (%) on ABTS ([1]; 11.5 μM): 27.67%
- Relative Free Radical Scavenging Activity (%) on ABTS ([1]; 23.0 μM): 59.20%
- Relative Free Radical Scavenging Activity (%) on ABTS ([1]; 46.0 μM): 94.14%
- Relative Free Radical Scavenging Activity (%) on ABTS ([1]; 92.5 μM): 100.00%

SMILES: O=C(NNS(=O)(=O)C(F)(F)F)c1ccc[n+](CC(=O)c2cccs2)c1.[Br-] [Compound 68, 1-(2-thien-2′-yl-2-oxoethyl)-3-(trifluoromethanesulfonyl hydrazinocarbonyl)-pyridinium bromide]
- % Breakage (AGE-BSA; 10 mM test compound): 92.64%
- Relative Free Radical Scavenging Activity (%) on ABTS ([1]; 11.5 μM): 38.47%
- Relative Free Radical Scavenging Activity (%) on ABTS ([1]; 23.0 μM): 43.54%
- Relative Free Radical Scavenging Activity (%) on ABTS ([1]; 46.0 μM): 89.32%
- Relative Free Radical Scavenging Activity (%) on ABTS ([1]; 92.5 μM): 95.07%

SMILES: O=C(NNC(=O)c1cccnc1Cl)c1ccc[n+](CC(=O)c2cccs2)c1.[Cl-] [Compound 42, 1-(2-thien-2′yl-2-oxoethyl)-3-(2-(2-chloro-3-pyridoyl)hydrazinocarbonyl)-pyridinium chloride]
- % Breakage (AGE-BSA; 10 mM test compound): 12.51%

SMILES: O=C(NNC(=O)c1ccc[n+](CC(=O)c2ccco2)c1)c1ccc[n+](CC(=O)c2ccco2)c1.[Br-].[Br-] [Compound 32, N,N′-bis[3-carbonyl-1-(2-furan-2′-yl-2-oxoethyl)pyridinium]hydrazine dibromide]
- % Breakage (AGE-BSA; 10 mM test compound): 14%

SMILES: NC(=O)c1cc(C(=O)NNC(=O)c2ccc[n+](CC(=O)c3cccs3)c2)c[n+](CC(=O)c2cccs2)c1.[Cl-].[Cl-] [Compound 60, 1-[1-(2-thien-2′-yl-2-oxoethyl)-5-aminocarbonyl-3-carbonylpyridinium]-2-[1-(2-Thien-2′-yl-2-oxoethyl)-3-carbonylpyridinium]hydrazine dichloride]
- % Breakage (AGE-BSA; 1 mM test compound): 95.36%
- Relative Free Radical Scavenging Activity (%) on ABTS ([1]; 11.5 μM): 44.1%
- Relative Free Radical Scavenging Activity (%) on ABTS ([1]; 23.0 μM): 59.8%
- Relative Free Radical Scavenging Activity (%) on ABTS ([1]; 46.0 μM): 69.4%
- Relative Free Radical Scavenging Activity (%) on ABTS ([1]; 92.5 μM): 99.9%
- Relative Free Radical Scavenging Activity (%) on ABTS ([1]; 925 μM): 100%

SMILES: CC(=O)OCCOC(=O)c1ccc[n+](CC(=O)c2ccccc2)c1.[Br-] [Compound 16, 1-(2-phenyl-2-oxoethyl)-3-(2-(acetoxy)ethyloxycarbonyl)pyridinium bromide]
- % Breakage (AGE-BSA; 10 mM test compound): 16%

SMILES: O=C(C[n+]1cccc(C(=O)NCCO)c1)Nc1ccccc1.[Cl-] [Compound 95, 1-(2-Phenylamino-2-oxoethyl)-3-((2-hydroxyethyl)aminocarbonyl)-pyridinium chloride]
- % Breakage (AGE-BSA; 20 mM test compound): 48%

SMILES: COCCNC(=O)c1ccc[n+](CC(=O)NC2CC2)c1.[Cl-] [Compound 40, 1-(2-cyclopropylamino-2-oxoethyl)-3-(2-methoxyethylaminocarbonyl)-pyridinium chloride]
- % Breakage (AGE-BSA; 10 mM test compound): 12.38%

SMILES: O=C(C[n+]1cccc(C(=O)NNC(=O)c2ccc[n+](CC(=O)c3ccccc3)c2)c1)c1ccccc1.[Br-].[Br-] [Compound 1, N,N′-bis[3-carbonyl-1-(2-phenyl-2-oxoethyl)-pyridinium]hydrazine dibromide]
- % Breakage (AGE-BSA; 5 mM test compound): 13%

SMILES: CCOC(=O)C[n+]1cccc(C(=O)NCCOC(=O)c2ccccc2)c1.[Br-] [Compound 7, 1-(2-ethoxy-2-oxoethyl)-3-(2-(benzoyloxy)ethylaminocarbonyl)pyridinium bromide]
- % Breakage (AGE-BSA; 20 mM test compound): 36%

SMILES: COCCNC(=O)c1cc(Br)c[n+](CC(=O)c2cccs2)c1.[Cl-] [Compound 47, 1-(2-thien-2′-yl-2-oxoethyl)-3-((2-methoxyethyl)aminocarbonyl)-5-bromo pyridinium chloride]
- % Breakage (AGE-BSA; 10 mM test compound): 32.38%

SMILES: Cc1ccc(C(=O)C[n+]2cccc(C(=O)NNC(=O)c3ccc[n+](CC(=O)c4ccc(C)s4)c3)c2)s1.[Cl-].[Cl-] [Compound 58, N,N′-bis[3-carbonyl-1-(2-(5-methylthien-2-yl)-2-oxoethyl)pyridinium]hydrazine dichloride]
- % Breakage (AGE-BSA; 10 mM test compound): 81.95%

SMILES: CCOC(=O)C1CCCN1C(=O)C[n+]1cccc(C(=O)NNS(C)(=O)=O)c1.[Cl-] (centres unmarked) [Compound 52, 1-(2-(2-ethoxycarbonylpyrrolidin-1-yl)-2-oxoethyl)-3-(methanesulfonyl hydrazinocarbonyl)pyridinium chloride]
- % Breakage (AGE-BSA; 10 mM test compound): 25.34%

SMILES: Cc1ccc(C(=O)NNC(=O)c2ccc[n+](CC(=O)c3cccs3)c2)c[n+]1CC(=O)c1cccs1.[Cl-].[Cl-] [Compound 49, 1-[1-(2-thien-2′yl-2-oxoethyl)-6-methyl-3-carbonylpyridinium]-2-[1-(2-Thien-2′-yl-2-oxoethyl)-3-carbonylpyridinium]hydrazine dichloride]
- % Breakage (AGE-BSA; 2.5 mM test compound): 85.67%

SMILES: O=C(C[n+]1ccsc1)c1ccccc1.[Br-] [PTB, reference compound]
- % Breakage (AGE-BSA; 10 mM test compound): 27%
- % Breakage (AGE-BSA; 20 mM test compound): 47%

SMILES: CS(=O)(=O)NNC(=O)c1cc(Br)c[n+](CC(=O)c2cccs2)c1.[Br-] [Compound 53, 1-(2-thien-2′-yl-2-oxoethyl)-3-(methanesulfonyl hydrazinocarbonyl)-5-bromo pyridinium bromide]
- % Breakage (AGE-BSA; 2.5 mM test compound): 29.36%

SMILES: CCOC(=O)C[n+]1cccc(C(=O)NCCO)c1.[Br-] [Compound 87, 1-(2-Ethoxy-2-oxoethyl)-3-((2-hydroxyethyl)aminocarbonyl)pyridinium bromide]
- % Breakage (AGE-BSA; 10 mM test compound): 43%

SMILES: Cc1ccc(C(=O)NNS(C)(=O)=O)c[n+]1CC(=O)c1cccs1.[Br-] [Compound 57, 1-(2-thien-2′-yl-2-oxoethyl)-3-(methanesulfonyl hydrazinocarbonyl)-6-methyl pyridinium bromide]
- % Breakage (AGE-BSA; 1 mM test compound): 77.69%

SMILES: O=C(C[n+]1ccc(C(=O)NCCOC(=O)c2ccccc2)cc1)Nc1ccccc1.[Cl-] [Compound 66, 1-(2-phenylamino-2-oxoethyl)-4-[2-(benzoyloxy)ethylaminocarbonyl]pyridinium chloride]
- % Breakage (AGE-BSA; 10 mM test compound): 19.07%

SMILES: CCOC(=O)C1CCCN1C(=O)C[n+]1cccc(C(=O)NNC(=O)c2ccc[n+](CC(=O)N3CCCC3C(=O)OCC)c2)c1.[Cl-].[Cl-] (centres unmarked) [Compound 59, N,N′-bis[3-carbonyl-1-(2-(2-ethoxycarbonylpyrrolidin-1-yl)-2-oxoethyl)pyridinium]hydrazine dichloride]
- % Breakage (AGE-BSA; 10 mM test compound): 20.31%
